Bridge positions count the residues as written; N and C are the ends. Square brackets hold non-standard residues; d marks the D form. Peptide text beside a SMILES is read from it. R8 = C=CCCCCCC[C@@](C)(N)C(=O)O; S5 = C=CCCC[C@](C)(N)C(=O)O
Experiments:
circular dichroism = conditions: 10 mM phosphate; pH 7.5; 25 °C; 50 uM
[1] = molecular target: 5HB, a recombinant protein containing 3 HR1 domains covalently attached to 2 HR2 domains; conditions: for competition with binding of fluorescently labeled T108 to recombinant 5HB (in words): Ala-scan variants, FP
Excerpt: The RSV HR2 region (residues 476 to 524) is a 49-amino-acid sequence that has been extensively characterized (Fig. 1). HR2 is a largely unstructured peptide in aqueous solution folding into an α-helix upon binding to trimeric HR1 coiled coils ([20]). […] We reduced HR2 (aa 483 to 516) into three short overlapping subdomains (subdomains 1 to 3) (Fig. 1). These peptides were scanned for various stapling combinations. […] Far-UV circular dichroism (CD) spectropolarimetry was used to investigate the effect of stapling on the α-helical content of the peptides. […] To assess the propensity of the stapled peptides to hinder the formation of the postfusion six-helix bundle required for viral cell entry, we used a 5-helix bundle (5HB) biochemical fluorescence polarization (FP) competition assay as previously described ([21], [22]).
The coding sequence of 5HB was designed as described previously and de novo synthesized by Genscript ([21]). The HR1 (aa 126 to 182) and HR2 (aa 476 to 524) coding sequences from wild-type RSV A2 strain F ([36]) were codon optimized for overexpression in Escherichia coli and cloned at NdeI/BamHI restriction sites of pET-15b to generate the expression plasmid for 5HB. The 5HB expression construct was transformed into Escherichia coli BL21(DE3). Cells were grown at 37°C to an optical density at 600 nm of 0.8 followed by induction with isopropyl-1-thio-β-D-galactopyranoside at a final concentration of 0.5 mM for 12 to 15 h. Cells were harvested by centrifugation, washed twice with PBS, and resuspended in 20 ml of PBS (pH 7.4), 500 mM NaCl, and 1% Triton X-100 supplemented with complete protease inhibitor. Cell suspensions were disrupted by sonication. Cell debris was removed through ultracentrifugation at 18,000 × g for 1 h at 4°C, and clarified cell lysate was mixed with 1 ml of nickel-nitrilotriacetic acid (Ni-NTA) agarose beads (Qiagen) preequilibrated with 20 ml of lysis buffer. The suspension was agitated for 1 h at 4°C and loaded onto a 5-ml polypropylene column (Qiagen). The column was washed twice with 8 ml of PBS (pH 7.4), 500 mM NaCl, 1% Triton X-100, and 100 mM imidazole. Proteins were eluted with 5 × 500 μl of a buffer containing PBS (pH 7.4), 300 mM imidazole, and 500 mM NaCl. The imidazole was removed by dialysis, and protein purity was assessed by SDS-polyacrylamide gel electrophoresis followed by Coomassie blue staining. Protein concentration was determined with the Qubit 2.0 Fluorometer (Life Technologies).
The T108 ([12]) peptide probe was synthesized by standard SPPS procedures using HCTU as a coupling reagent as described above. A 10-μl volume of recombinant 5HB protein in FP buffer (20 mM PBS [pH 7.4], 500 mM NaCl, 0.01% [vol/vol] Tween 20, and 0.05 mg/ml bovine gamma globulin) was preincubated for 10 min at room temperature with 10 μl of the appropriate concentration of the inhibitor, after which 10 μl of fluorescein isothiocyanate (FITC)-T106 was added and further incubated for 30 min at room temperature. The final concentrations of protein and probe were 50 nM and 2 nM, respectively. The fluorescence polarization assay was performed in 384-well plates using a Spectramax Paradigm (Molecular Devices), using excitation and emission wavelengths of 485 nm and 535 nm, respectively. The acquisition time was 700 ms, and the read height was 1 mm. All experiments were performed in duplicate. […] In order to ensure robust fitting for some fits, r0 was kept constant at the value measured for the free tracer in buffer.

[2] = system: recombinant GFP-expressing RSV (strain A2) in A549 cells; format: cell-based, human respiratory syncytial virus; conditions: A549 cells, eGFP RSV, GFP-positive cells by FACS 24 h p.i.
Description: A549 cells were infected with a recombinant green fluorescent protein (GFP)-expressing RSV (strain A2) ([23]), and the inhibitory activity of the peptide was quantified by flow cytometry.
Each peptide was diluted 3 times by 2-fold serial dilutions. eGFP RSV virus at an MOI of 0.5 was used for the infection, and GFP-positive cells were counted by FACS analysis 24 h p.i. The GFP data were normalized to the fluorescence values observed with virus only and plotted as percent inhibition.
Serial 4-fold dilutions of inhibitors were mixed with eGFP-encoding RSV virus ([23]) with a volume of virus required to achieve approximately 50% of infection in medium containing 2% fetal calf serum. The resulting mixture was added to 24-well plates containing A549 cells. Cells were incubated for 2 h at 37°C, the medium was replaced, and cells were incubated for an additional 24 h. Cells were treated with 300 μl of trypsin for 10 min at 37°C, and the detached cells were diluted in 1 ml of culture medium. Following centrifugation at 1,700 rpm, the pellet was resuspended in 300 μl of PBS–1% fetal bovine serum (FBS) (vol/vol) and GFP-positive cells were counted by fluorescence-activated cell sorter (FACS) analysis. The GFP data were normalized to the fluorescence value observed with virus only. The resulting inhibition curves were fitted in Igor Pro as described above.

[3] = system: rHRSV-mCherry in HEp-2 cells; assay: rHRSV-mCherry inhibition assay; format: cell-based, human respiratory syncytial virus; conditions: Table 3 (Ala scan); HEp-2 cells, rHRSV-mCherry MOI 0.2, 2-fold serial dilutions (11 dilutions), duplicate; ± SD of fit
Description: To measure the inhibitory activity of the peptide, the mCherry red fluorescence was quantified 48 h postinfection (p.i.).
Viral replication was quantified by measuring the mCherry fluorescence at 48 h p.i. and normalized based on the fluorescence of infected and untreated cells. (B) Cytotoxicity assay. HEp-2 cells were incubated in the presence of serial dilutions of peptides, and cell survival was quantified using the CellTiter-Glo Luminescent cell viability assay 24 h after the addition of the peptides. The signal was normalized based on the luminescence obtained for untreated cells. Error bars are standard deviations from duplicates.
HEp-2 cells were seeded at 5 × 10^4 cells per well in a 96-well plate the day before the infection. Peptides were 2-fold serially diluted in dimethyl sulfoxide (DMSO) (11 dilutions) and then further diluted in EMEM without phenol red and preincubated for 15 to 20 min with rHRSV-mCherry ([24]) at a final dilution with an MOI of 0.2 ([24]). The cells were incubated with the virus-peptide mixtures for a period of 1.5 to 2 h. The medium was then replaced by EMEM without phenol red containing 2% fetal bovine serum and the same concentration of peptide as the one that was used during the infection step. Plates were incubated 48 h at 37°C, and the mCherry fluorescence was measured using a spectrofluorometer (Tecan infinite M200PRO) with excitation and emission wavelengths of 580 and 620 nm, respectively. Relative fluorescence was normalized by the fluorescence of nontreated infected cells. Noninfected HEp-2 cells were used as standards for fluorescence background levels. Each experiment was performed in duplicate and repeated at least twice. The resulting inhibition curves were fitted in Igor Pro as described above.

## CC[C@H](C)[C@H](NC(=O)[C@H](CCCCN)NC(=O)[C@H](CCC(=O)O)NC(=O)[C@H](CC(N)=O)NC(=O)[C@@H](NC(=O)[C@H](CCC(N)=O)NC(=O)[C@]1(C)CCCC=CCCCCCC[C@@](C)(NC(=O)[C@H](CO)NC(=O)[C@@H]2CCCN2C(=O)[C@H](Cc2ccccc2)NC(=O)[C@H](CCC(=O)O)NC(C)=O)C(=O)N[C@@H](CCC(=O)O)C(=O)N[C@@H](Cc2ccccc2)C(=O)N[C@@H](CC(=O)O)C(=O)N[C@@H](C)C(=O)N[C@@H](CO)C(=O)N[C@@H]([C@@H](C)CC)C(=O)N1)C(C)C)C(=O)N[C@@H](CC(N)=O)C(N)=O [Peptide 1a] (Ac-EFPS[R8]EFDASI[S5]QVNEKIN-NH2; staple 5-12)
Circular dichroism
  helicity: 14.2%
[1]; competition with fluorescently labeled T108 probe (2 nM), 5HB 50 nM, 10 min preincubation + 30 min room temperature, duplicates
  Kd: 9.8 ± 1.5 µM
[2]
  inhibition of RSV-eGFP infection (in words): none

## CC[C@H](C)[C@H](NC(=O)[C@H](CCCCN)NC(=O)[C@H](CCC(=O)O)NC(C)=O)C(=O)N[C@@]1(C)CCCC=CCCC[C@@](C)(C(=O)N[C@@H](Cc2ccccc2)C(=O)N[C@@H](C)C(=O)N[C@@]2(C)CCCC=CCCC[C@@](C)(C(=O)N[C@@H](CC(C)C)C(=O)N[C@@H](CC(C)C)C(=O)N[C@@H](Cc3c[nH]cn3)C(=O)N[C@@H](CC(N)=O)C(=O)N[C@H](C(N)=O)C(C)C)NC(=O)[C@H](CC(=O)O)NC(=O)[C@H](CO)NC(=O)[C@H](CCCCN)NC2=O)NC(=O)[C@H](CC(C)C)NC(=O)[C@H](CO)NC(=O)[C@H](CCC(N)=O)NC1=O [Peptide I506A] (Ac-EKI[S5]QSL[S5]FA[S5]KSD[S5]LLHNV-NH2; staple 4-8, 11-15)
Circular dichroism
  helicity: 22%
[1]
  competition with binding of fluorescently labeled T108 to recombinant 5HB (in words): none of these variants were able to compete
[3]
  EC50: 10.4 ± 2.97 µM

## CC[C@H](C)[C@H](NC(=O)[C@H](Cc1ccccc1)NC(=O)[C@]1(C)CCCC=CCCC[C@](C)(NC(=O)[C@@H](NC(=O)[C@H](CCCCN)NC(=O)[C@H](CCC(=O)O)NC(C)=O)[C@@H](C)CC)C(=O)N[C@@H](CCC(N)=O)C(=O)N[C@@H](CO)C(=O)N[C@@H](CC(C)C)C(=O)N1)C(=O)N[C@@]1(C)CCCC=CCCC[C@@](C)(C(=O)N[C@@H](CC(C)C)C(=O)N[C@@H](CC(C)C)C(=O)N[C@@H](Cc2c[nH]cn2)C(=O)N[C@@H](CC(N)=O)C(=O)N[C@H](C(N)=O)C(C)C)NC(=O)[C@H](CC(=O)O)NC(=O)[C@H](CO)NC(=O)[C@H](C)NC1=O [Peptide K508A] (Ac-EKI[S5]QSL[S5]FI[S5]ASD[S5]LLHNV-NH2; staple 4-8, 11-15)
Circular dichroism
  helicity: 76%
[1]
  competition with binding of fluorescently labeled T108 to recombinant 5HB (in words): none of these variants were able to compete
[3]
  EC50: 10.9 ± 13.9 µM

## CC[C@H](C)[C@@H]1NC(=O)[C@H](Cc2ccccc2)NC(=O)[C@@](C)(NC(=O)[C@H](CC(C)C)NC(=O)[C@H](CO)NC(=O)[C@H](CCC(N)=O)NC(=O)[C@H](CC(N)=O)NC(=O)[C@@H](NC(=O)[C@H](CCCCN)NC(=O)[C@H](CCC(=O)O)NC(C)=O)[C@@H](C)CC)CCCC=CCCC[C@@](C)(C(=O)N[C@@H](CO)C(=O)N[C@@H](CC(=O)O)C(=O)N[C@@]2(C)CCCC=CCCC[C@@](C)(C(=O)N[C@H](C(N)=O)C(C)C)NC(=O)[C@H](Cc3c[nH]cn3)NC(=O)[C@H](CC(C)C)NC(=O)[C@H](CC(C)C)NC2=O)NC(=O)[C@H](C)NC1=O [Peptide R507A] (Ac-EKINQSL[S5]FIA[S5]SD[S5]LLH[S5]V-NH2; staple 8-12, 15-19)
Circular dichroism
  helicity: 45%
[1]
  competition with binding of fluorescently labeled T108 to recombinant 5HB (in words): none of these variants were able to compete
[3]
  EC50: 175 µM

## CC[C@H](C)[C@H](NC(=O)[C@H](Cc1ccccc1)NC(=O)[C@]1(C)CCCC=CCCC[C@](C)(NC(=O)[C@@H](NC(=O)[C@H](CCCCN)NC(=O)[C@H](CCC(=O)O)NC(C)=O)[C@@H](C)CC)C(=O)N[C@@H](CCC(N)=O)C(=O)N[C@@H](CO)C(=O)N[C@@H](CC(C)C)C(=O)N1)C(=O)N[C@@]1(C)CCCC=CCCC[C@@](C)(C(=O)N[C@@H](CC(C)C)C(=O)N[C@@H](CC(C)C)C(=O)N[C@@H](Cc2c[nH]cn2)C(=O)N[C@@H](CC(N)=O)C(=O)N[C@H](C(N)=O)C(C)C)NC(=O)[C@H](CC(=O)O)NC(=O)[C@H](C)NC(=O)[C@H](CCCCN)NC1=O [Peptide S509A] (Ac-EKI[S5]QSL[S5]FI[S5]KAD[S5]LLHNV-NH2; staple 4-8, 11-15)
Circular dichroism
  helicity: 62%
[1]
  competition with binding of fluorescently labeled T108 to recombinant 5HB (in words): none of these variants were able to compete
[3]
  EC50: 82 ± 1.56 µM

## CC[C@H](C)[C@@H]1NC(=O)[C@H](CO)NC(=O)[C@](C)(NC(=O)[C@H](CC(=O)O)NC(=O)[C@H](Cc2ccccc2)NC(C)=O)CCCCCCC=CCCC[C@@](C)(C(=O)N[C@@H](CCCCN)C(=O)N[C@H](C(=O)N[C@@H](CC(N)=O)C(=O)N[C@@H](CCC(N)=O)C(=O)N[C@@H](CO)C(=O)N[C@@H](CC(C)C)C(=O)N[C@@H](C)C(=O)N[C@@H](Cc2ccccc2)C(=O)N[C@H](C(=O)N[C@]2(C)CCCCCCC=CCCC[C@@](C)(C(=O)N[C@@H](CC(N)=O)C(=O)N[C@H](C(=O)N[C@@H](CC(N)=O)C(=O)N[C@@H](C)C(=O)NCC(=O)N[C@@H](CCCCN)C(=O)N[C@@H](CO)C(=O)N[C@H](C(N)=O)[C@@H](C)O)C(C)C)NC(=O)[C@H](CC(C)C)NC(=O)[C@H](CC(C)C)NC(=O)[C@H](CCC(=O)O)NC(=O)[C@H](CC(=O)O)NC(=O)[C@H](CO)NC(=O)[C@H](CCCCN)NC2=O)[C@@H](C)CC)[C@@H](C)CC)NC(=O)[C@H](CC(N)=O)NC(=O)[C@H](C(C)C)NC(=O)[C@H](CCC(N)=O)NC(=O)[C@H](CO)NC1=O [RSV-SAHBD (Z), reference compound]
[2]
  inhibition of RSV-eGFP infection (in words): potency similar to that of peptides 4bb and 4ca
